Legend:
Assay in all cases: In vitro MMP inhibition, IC50 determination (fluorogenic substrate I)
Type in all cases: biochemical
Details in all cases: value outside parentheses (Ki in parenthesis)
Human recombinant MMP-1 = molecular target: T1, Human recombinant MMP-1 (Homo sapiens, UniProt P03956)
T1 construct: made in house; host or cells: MMP-1-transfected HT-1080 cells (spent media)
T1 sequence (P03956 100-469): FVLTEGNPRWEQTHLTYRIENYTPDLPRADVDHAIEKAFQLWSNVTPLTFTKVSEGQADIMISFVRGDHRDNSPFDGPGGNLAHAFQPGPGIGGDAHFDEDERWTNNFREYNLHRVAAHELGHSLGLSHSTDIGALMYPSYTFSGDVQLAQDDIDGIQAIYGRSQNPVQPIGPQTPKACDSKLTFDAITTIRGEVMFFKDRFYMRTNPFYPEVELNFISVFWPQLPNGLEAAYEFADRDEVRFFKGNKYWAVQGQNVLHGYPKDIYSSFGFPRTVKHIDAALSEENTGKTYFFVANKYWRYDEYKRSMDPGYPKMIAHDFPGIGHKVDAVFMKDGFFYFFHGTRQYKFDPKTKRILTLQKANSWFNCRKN
Summary of the method: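 Inhibitor dilutions were made in 100 mM Tris-HCl/100 mM NaCl/10 mM CaCl2 buffer, pH 7.5, and incubated at room temperature with activated proenzyme (from transfected HT-1080 media; APMA or trypsin) and 4 μM quenched methoxycoumarin peptide substrate. Loss of 415 nm fluorescence (328 nm excitation) against concentration gave IC50.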

Human recombinant MMP-2 = molecular target: T2, Human recombinant MMP-2 (Homo sapiens, UniProt P08253)
T2 construct: made in house; host or cells: MMP-2-transfected p2AHT2 cells
T2 sequence (P08253 110-660): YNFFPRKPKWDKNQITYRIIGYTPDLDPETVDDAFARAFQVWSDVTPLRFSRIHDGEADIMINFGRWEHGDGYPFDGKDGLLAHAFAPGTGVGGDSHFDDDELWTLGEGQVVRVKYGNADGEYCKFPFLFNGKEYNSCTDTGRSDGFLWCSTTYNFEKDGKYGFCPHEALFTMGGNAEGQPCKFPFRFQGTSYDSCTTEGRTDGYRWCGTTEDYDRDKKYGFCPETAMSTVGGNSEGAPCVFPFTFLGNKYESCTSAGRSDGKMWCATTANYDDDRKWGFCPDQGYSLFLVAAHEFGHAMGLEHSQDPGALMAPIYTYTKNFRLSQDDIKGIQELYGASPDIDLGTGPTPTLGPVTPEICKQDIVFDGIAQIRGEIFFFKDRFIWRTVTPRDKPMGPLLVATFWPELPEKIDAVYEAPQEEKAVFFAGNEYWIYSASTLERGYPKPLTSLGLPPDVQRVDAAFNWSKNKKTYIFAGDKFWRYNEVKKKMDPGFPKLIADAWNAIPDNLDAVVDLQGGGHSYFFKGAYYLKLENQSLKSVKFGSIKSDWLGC
Summary of the method: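 IC50 was derived from the concentration-dependent fall in fluorescence (ex 328, em 415 nm) on Gly-Leu cleavage of 4 μM MCA/Dpa-quenched substrate I. Assays ran at room temperature in pH 7.5 Tris/NaCl/CaCl2/Brij buffer with MMP-2 activated by trypsin or APMA; inhibitors were diluted from 1% DMSO stocks.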

Human recombinant MMP-9 = molecular target: T3, Human recombinant MMP-9 (Homo sapiens, UniProt P14780)
T3 construct: made in house; host or cells: MMP-9-transfected HT1080 cells (spent media)
T3 sequence (P14780 107-707 limits assumed): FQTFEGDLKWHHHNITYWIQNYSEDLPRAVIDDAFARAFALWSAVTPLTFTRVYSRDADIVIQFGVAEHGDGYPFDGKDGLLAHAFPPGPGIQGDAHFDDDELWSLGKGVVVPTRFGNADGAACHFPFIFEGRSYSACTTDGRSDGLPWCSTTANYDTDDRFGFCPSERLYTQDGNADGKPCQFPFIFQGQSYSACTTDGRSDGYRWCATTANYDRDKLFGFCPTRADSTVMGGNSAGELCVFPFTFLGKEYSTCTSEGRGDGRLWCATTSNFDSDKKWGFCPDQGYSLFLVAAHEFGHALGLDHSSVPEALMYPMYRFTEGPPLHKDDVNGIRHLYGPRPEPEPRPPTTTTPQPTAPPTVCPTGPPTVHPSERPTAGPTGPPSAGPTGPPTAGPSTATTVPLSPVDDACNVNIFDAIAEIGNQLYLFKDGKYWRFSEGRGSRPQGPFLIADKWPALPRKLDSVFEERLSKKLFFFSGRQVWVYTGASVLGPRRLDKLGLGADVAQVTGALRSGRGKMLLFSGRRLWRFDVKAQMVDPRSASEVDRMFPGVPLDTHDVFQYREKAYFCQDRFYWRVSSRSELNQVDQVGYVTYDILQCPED
Summary of the method: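 Reduction in fluorescence (328 nm excitation, 415 nm emission) from cleavage of 4 μM quenched peptide substrate I, measured at room temperature against inhibitor concentration, gave IC50. Enzyme: trypsin- or APMA-activated MMP-9 purified from transfected HT1080 medium; buffer 100 mM Tris, 100 mM NaCl, 10 mM CaCl2, pH 7.5.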

Human recombinant MMP-13 = molecular target: T4, Human recombinant MMP-13 (Homo sapiens, UniProt P45452)
T4 construct: made in house; host or cells: baculovirus / insect cells
Summary of the method: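 Fluorescence at 415 nm (excitation 328 nm) reports Gly-Leu cleavage of 4 μM quenched methoxycoumarin peptide substrate I. Human recombinant MMP-13, activated by trypsin or APMA, was incubated at room temperature with varied inhibitor concentrations in pH 7.5 Tris/NaCl/CaCl2 buffer; IC50 derived from reduced fluorescence.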

Human recombinant MMP-14 = molecular target: T5, Human recombinant MMP-14 (Homo sapiens, UniProt P50281)
T5 construct: The catalytic domain enzyme was expressed in E. coli inclusion bodies, solubilized in urea; made in house
Summary of the method: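 IC50 came from reduced fluorescence (ex 328 nm, em 415 nm) as inhibitor concentration rose, with 4 μM substrate I cleaved at Gly-Leu. Room-temperature incubation in pH 7.5 Tris buffer with 10 mM CaCl2; the E. coli-expressed, refolded MMP-14 catalytic domain was activated with trypsin or APMA.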

Structure (SMILES)	IC50 (Human recombinant MMP-1) [nM]	IC50 (Human recombinant MMP-2) [nM]	IC50 (Human recombinant MMP-9) [nM]	IC50 (Human recombinant MMP-13) [nM]	IC50 (Human recombinant MMP-14) [nM]
CC(C)(C)C1CCN(S(=O)(=O)CCCOc2ccc(S(=O)(=O)C3(C(=O)NO)CCOCC3)cc2)CC1 [Example 310]	> 10000	32	1980	3	> 10000
CCCCCc1ccc(-c2nnc(CCCOc3ccc(S(=O)(=O)C4(C(=O)NO)CCOCC4)cc3)o2)cc1 [Example 316]	2680	2840	692	13.6	> 10000
Cc1oc(CCCOc2ccc(S(=O)(=O)C3(C(=O)NO)CCOCC3)cc2)nc1-c1ccccc1 [Example 317]	> 10000	120	244	3.1	> 10000
O=C(NO)C1(S(=O)(=O)c2ccc(OCCCOc3ccc(C(F)(F)F)cc3)cc2)CCN(C2CC2)CC1 [Example 319]	> 10000	5.8	258	1	4220
O=C(NO)C1(S(=O)(=O)c2ccc(OCCCNc3nc4ccccc4o3)cc2)CCOCC1 [Example 321]	> 10000	1700	626	3.7	> 10000
O=C(CCCCOc1ccc(S(=O)(=O)C2(C(=O)NO)CCOCC2)cc1)c1cccs1 [Example 324]	2990	4.2	500	0.5	8000
O=C(CCCCOc1ccc(S(=O)(=O)C2(C(=O)NO)CCOCC2)cc1)c1cccc(-c2ccccc2)c1 [Example 325]	> 10000	11	4040	0.5	> 10000
O=C(CCCCOc1ccc(S(=O)(=O)C2(C(=O)NO)CCOCC2)cc1)c1ccccc1 [Example 326]	> 10000	7.4	263	0.3	8320
CC(C)(C)c1ccc(C(=O)CCCCOc2ccc(S(=O)(=O)C3(C(=O)NO)CCOCC3)cc2)cc1 [Example 327]	> 10000	50.7	5280	0.9	> 10000
CCOc1ccc2nc(SCCOc3ccc(S(=O)(=O)C4(C(=O)NO)CCOCC4)cc3)sc2c1 [Example 330]	> 10000	262	216	16	592
O=C(NO)C1(S(=O)(=O)c2ccc(OCCCS(=O)(=O)N3CCc4ccccc4C3)cc2)CCOCC1 [Example 332]	2460	3.6	132	2.6	> 10000
O=C1c2cc(Cl)c(Cl)cc2C(=O)N1CCCOc1ccc(S(=O)(=O)C2(C(=O)NO)CCOCC2)cc1 [Example 333]	> 10000	656	3240	1.8	> 10000
O=C(NO)C1(S(=O)(=O)c2ccc(OCCCCN3CCc4ccccc4C3)cc2)CCOCC1 [Example 334]	> 10000	16.4	866	5.1	2880
COc1cc2c(cc1OC)C(C)N(C(=O)OCCCCOc1ccc(S(=O)(=O)C3(C(=O)NO)CCOCC3)cc1)CC2 (stereo not shown) [Example 335]	> 10000	2.3	172	6.5	> 10000

Reference: patent publication US20040024024A1, “Aromatic sulfone hydroxamates and their use as protease inhibitors” (priority 2001, published 2004)
